Measurements taken from patent publication US7138361B2, “Herbicidal heterocycles” (E. I. du Pont de Nemours and Company, priority 2000, dated 2006).

Assays:
Assay type in all cases: in vivo
[1] = system: duck salad (Heteranthera limosa); experiment: Test B flooded paddy test; conditions: Rate 1000 g/ha, scale of 0 to 100 where 0 is no effect and 100 is complete control, visually evaluated after 13 to 15 days
Outline: (§1)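 Treatment: formulated chemical applied to flooded paddy plants at 2-leaf stage. Hold: greenhouse, 13–15 days. Scoring: visual comparison to controls, 0 (no effect) to 100 (complete control).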

rice (Oryza saliva) = experiment: Test B flooded paddy test; conditions: Rate 1000 g/ha, scale of 0 to 100 where 0 is no effect and 100 is complete control, visually evaluated after 13 to 15 days
Outline: as §1

[2] = system: smallflower flatsedge (Cyperus difformis); experiment: Test B flooded paddy test; conditions: Rate 1000 g/ha, scale of 0 to 100 where 0 is no effect and 100 is complete control, visually evaluated after 13 to 15 days
Outline: as §1

[3] = system: Italian ryegrass (Lolium multiflorum); experiment: Test C postemergence
Outline: (§2)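 Each compound was dissolved in a non-phytotoxic solvent system containing a surfactant and sprayed either on freshly planted seeds (preemergence) or on young plants, 2 to 18 cm high (postemergence). Ratings after 12 to 14 greenhouse days ran from 0, no effect, to 100, complete control.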

[4] = system: blackgrass (Alopecurus myosuroides); experiment: Test C postemergence
Outline: as §2

[5] = system: canary grass (Phalaris minor); experiment: Test C postemergence
Outline: as §2

[6] = system: downy brome (Bromus tectorum); experiment: Test C postemergence
Outline: as §2

[7] = system: green foxtail (Setaria viridis); experiment: Test C postemergence
Outline: as §2

[8] = system: wheat (Triticum aestivum); experiment: Test C postemergence
Outline: as §2

wild oat (Avena fatua) = experiment: Test C postemergence
Outline: as §2

[9] = system: windgrass (Apera spica-venti); experiment: Test C postemergence
Outline: as §2

[10] = system: winter barley (Hordeum vulgare); experiment: Test C postemergence
Outline: as §2

[11] = Rate 250 g/ha, scale 0 to 100 (0 no effect, 100 complete control)
[12] = Rate 500 g/ha, scale 0 to 100 (0 no effect, 100 complete control)
[13] = Rate 125 g/ha, scale 0 to 100, 0 no effect, 100 complete control

`CC(C)(C)c1ccn(C2CCN(c3cccc(C(F)(F)F)c3)C2=S)n1` (centres unmarked) [Compound 22] was tested, and the “Plant response rating, Ducksalad” value [1] was 100, the “Plant response rating, Rice” value (rice (Oryza saliva)) was 90 and the “Plant response rating, Flatsedge” value [2] was 100.
With `COc1cc(N2CCC(n3ccc(C(C)(C)C)n3)C2=O)ccc1Cl` (centres unmarked) [Compound 117] the “Plant response rating, Ryegrass” value ([3]; Rate 62 g/ha, scale 0 to 100) was 10, the “Plant response rating, Ryegrass” value [3, 11] was 30 and the “Plant response rating, Ryegrass” value [3, 12] was 60. For the same compound, the “Plant response rating, Blackgrass” value ([4]; Rate 62 g/ha, scale 0 to 100) was 0, the “Plant response rating, Blackgrass” value [4, 13] was 0 and the “Plant response rating, Blackgrass” value [4, 11] was 20. For the same compound, the “Plant response rating, Blackgrass” value [4, 12] was 40, the “Plant response rating, Canarygrass” value ([5]; Rate 62 g/ha, scale 0 to 100) was 0 and the “Plant response rating, Canarygrass” value [5, 13] was 0. The “Plant response rating, Canarygrass” value [5, 11] was 20, the “Plant response rating, Canarygrass” value [5, 12] was 20 and the “Plant response rating, Downy Brome” value ([6]; Rate 62 g/ha, scale 0 to 100) was 20. The “Plant response rating, Downy Brome” value [6, 13] was 40, the “Plant response rating, Downy Brome” value [6, 12] was 40 and the “Plant response rating, Foxtail, Green” value ([7]; Rate 62 g/ha, scale 0 to 100) was 10. The “Plant response rating, Foxtail, Green” value [7, 11] was 30, the “Plant response rating, Foxtail, Green” value [7, 12] was 50 and the “Plant response rating, Wheat” value ([8]; Rate 62 g/ha, scale 0 to 100) was 10. The “Plant response rating, Wheat” value [8, 11] was 10, the “Plant response rating, Wheat” value [8, 12] was 20 and the “Plant response rating, Wild Oat” value (wild oat (Avena fatua); Rate 62 g/ha, scale 0 to 100) was 30. For the same compound, the “Plant response rating, Wild Oat” value (wild oat (Avena fatua); [11]) was 30, the “Plant response rating, Wild Oat” value (wild oat (Avena fatua); [12]) was 30 and the “Plant response rating, Windgrass” value ([9]; Rate 62 g/ha, scale 0 to 100) was 20. For the same compound, the “Plant response rating, Windgrass” value [9, 11] was 40, the “Plant response rating, Windgrass” value [9, 12] was 60 and the “Plant response rating, Barley, Winter” value ([10]; Rate 62 g/ha, scale 0 to 100) was 0. The “Plant response rating, Barley, Winter” value [10, 13] was 0 and the “Plant response rating, Barley, Winter” value [10, 12] was 20.
`Cc1cc(C)nc(N2CCC(n3ccc(C(C)(C)C)n3)C2=O)c1` (centres unmarked) [Compound 138] was tested, and the “Plant response rating, Ducksalad” value [1] was 90, the “Plant response rating, Rice” value (rice (Oryza saliva)) was 90 and the “Plant response rating, Flatsedge” value [2] was 90.
